Experimental data as given in patent publication US20250171404A1, “PCNA INHIBITORS AND USES THEREOF” (CITY OF HOPE, priority 2022, published 2025).

Tests used:
[1] = tested on: DNA replication fork extension, SK-N-BE(2)-C or MDA-MB-231 cells; experiment: DNA combing analysis (replication fork extension); type: cell-based; conditions: synchronized cells, 20 minutes
Experimental: (§1) FIGS. 7A-7E. Transcription dependent effect on DNA replication and damage. FIG. 7A: Left: Schematic of the cell fractionation procedure. Right: MDA-MB-468 cells were treated by increasing concentrations of AOH1996 (5, 50, or 500 nM) for 24 h. Cells treated with DMSO were used as control. Whole cell extract (WCE) and protein fractions associated with actively transcribed chromatin (CB:RNA+) or with low or non-transcribed chromatin (CB:RNA−) were analyzed by Western blot using antibodies against PCNA, CAF-1, and MCM7. FIG. 7B: Synchronized cancer cells were sequentially incubated in the presence of CldU (light grey) and IdU (dark grey) before and after AOH1996 treatment, respectively. […] Middle and Right: Lengths of CldU (light grey) and IdU (dark grey) incorporated DNA segments measured for more than 30 independent DNA strands from the indicated cancer cell type were averaged and graphed ±S.D. FIG. 7C: Whole cell lysates were extracted from SK-N-AS cells homozygous of the wildtype RPB1 allele or the APIM-mutant allele. Histone H2A.X and γH2A.X was analyzed by Western blot after treatment with or without AOH1996 overnight. FIG. 7D: Histone H2A.X and γH2A.X in whole cell lysates from SK-N-AS cells were analyzed by Western blot after treatment with 500 nM AOH1996 and/or 50 μM DRB overnight. […]

[2] = tested on: PCNA and MCM7 on chromatin, MDA-MB-468 cells; experiment: Cell fractionation, chromatin-bound PCNA and MCM7; type: cell-based, human; conditions: 5, 50, or 500 nM, 24 h
Experimental: as §1

Q: `COc1cccc(Oc2ccccc2NC(=O)CNC(=O)c2cccc3ccccc23)c1` [AOH1996, N-(2-((2-(3-methoxyphenoxy)phenyl)amino)-2-oxoethyl)-1-naphthamide] was tested. Which “length of IdU-incorporated DNA strands” value [1] did it give?
A: The value was “IdU-incorporated DNA strands became significantly shorter in cells treated by AOH1996 than untreated control cells”.

Q: What about the “association of PCNA and MCM7 with chromatin” value [2] of the same molecule?
A: The value was “caused dissociation of PCNA and MCM7 from the actively transcribed open chromatin regions”.
